# Test results published in ChEMBL document CHEMBL1255340, “In vitro activities of the Rx-01 oxazolidinones against hospital and community pathogens” (2008).
# “And” between values parts separate entries of the source, which are not always exact repeats. Equal values may be shown once.
# Assays:
# Assay type in all cases: functional
# [1] = tested on: Streptococcus pneumoniae; experiment: Antimicrobial activity against Streptococcus pneumoniae PU1071099 harboring 65WR66 deletion in ribosomal protein L4 by broth microdilution method
# [2] = tested on: Staphylococcus aureus; experiment: Antimicrobial activity against Staphylococcus aureus pL150
# [3] = tested on: Streptococcus pneumoniae; experiment: Antimicrobial activity against Streptococcus pneumoniae harboring erm(B) and mef(A) gene
# [4] = tested on: Staphylococcus aureus; experiment: Antimicrobial activity against methicillin-resistant Staphylococcus aureus BK 11512
# [5] = tested on: Staphylococcus aureus; experiment: Antimicrobial activity against Staphylococcus aureus A8833 harboring U2500A mutation in 23S rRNA
# [6] = tested on: Haemophilus influenzae; experiment: Antimicrobial activity against Haemophilus influenzae A1950
# [7] = tested on: Streptococcus pneumoniae; experiment: Antimicrobial activity against Streptococcus pneumoniae 02J1175 assessed as log reduction in bacterial growth at 8 times MIC after 24 hrs by time-kill assay
# [8] = tested on: Staphylococcus aureus; experiment: Antimicrobial activity against methicillin-resistant Staphylococcus aureus BK 11118
# [9] = tested on: Enterococcus faecium; experiment: Antimicrobial activity against Enterococcus faecium A8767
# [10] = tested on: Staphylococcus aureus; experiment: Antimicrobial activity against methicillin-susceptible Staphylococcus aureus nosocomial isolate
# [11] = tested on: Enterococcus faecium; experiment: Antimicrobial activity against Enterococcus faecium A8130
# [12] = tested on: Enterococcus faecium; experiment: Antimicrobial activity against Enterococcus faecium A6345
# [13] = tested on: Enterococcus faecalis; experiment: Antimicrobial activity against vancomycin-resistant Enterococcus faecalis nosocomial isolate
# [14] = tested on: Streptococcus pneumoniae; experiment: Antimicrobial activity against Streptococcus pneumoniae 02J1175 assessed as log reduction in bacterial growth at 4 times MIC after 24 hrs by time-kill assay
# [15] = tested on: Staphylococcus aureus; experiment: Antimicrobial activity against Staphylococcus aureus ATCC 29213
# [16] = tested on: Enterococcus faecalis; experiment: Antimicrobial activity against Enterococcus faecalis ATCC 29212
# [17] = tested on: Enterococcus faecalis; experiment: Antimicrobial activity against vancomycin-resistant Enterococcus faecalis 03B1069
# [18] = tested on: Enterococcus faecalis; experiment: Antimicrobial activity against Enterococcus faecalis ATCC 29212-P5 harboring G2576U mutation in 23S rRNA
# [19] = tested on: Haemophilus influenzae; experiment: Antimicrobial activity against Haemophilus influenzae 54A1100 assessed as log reduction in bacterial growth at 4 times MIC after 24 hrs by time-kill assay
# [20] = tested on: Enterococcus faecium; experiment: Antimicrobial activity against Enterococcus faecium A8948
# [21] = tested on: Enterococcus faecium; experiment: Antimicrobial activity against Enterococcus faecium A6349 harboring G2576U mutation in 23S rRNA
# [22] = tested on: Enterococcus faecium; experiment: Antimicrobial activity against Enterococcus faecium A6348 harboring G2576U mutation in 23S rRNA
# [23] = tested on: Moraxella catarrhalis; experiment: Antimicrobial activity against Moraxella catarrhalis
# [24] = tested on: Staphylococcus aureus; experiment: Antimicrobial activity against Staphylococcus aureus A8761
# [25] = tested on: Staphylococcus aureus; experiment: Antimicrobial activity against Staphylococcus aureus pLXM1 harboring cfr gene
# [26] = tested on: Haemophilus influenzae; experiment: Antimicrobial activity against Haemophilus influenzae 54A1100
# [27] = tested on: Enterococcus faecium; experiment: Antimicrobial activity against Enterococcus faecium A9650
# [28] = tested on: Streptococcus pneumoniae; experiment: Antimicrobial activity against Streptococcus pneumoniae 02J1258 assessed as log reduction in bacterial growth at 4 times MIC after 24 hrs by time-kill assay
# [29] = tested on: Enterococcus faecium; experiment: Antimicrobial activity against Enterococcus faecium A6349
# [30] = tested on: Enterococcus faecium; experiment: Antimicrobial activity against Enterococcus faecium A5959
# [31] = tested on: Staphylococcus aureus; experiment: Antimicrobial activity against Staphylococcus aureus A8831 harboring U2500A mutation in 23S rRNA
# [32] = tested on: Streptococcus pneumoniae; experiment: Antimicrobial activity against Streptococcus pneumoniae ribosomal mutant
# [33] = tested on: Staphylococcus aureus; experiment: Antimicrobial activity against Staphylococcus aureus A7817
# [34] = tested on: Enterococcus faecalis; experiment: Antimicrobial activity against Enterococcus faecalis A7789
# [35] = tested on: Enterococcus faecalis; experiment: Antimicrobial activity against Enterococcus faecalis A6350
# [36] = tested on: Streptococcus pneumoniae; experiment: Antimicrobial activity against Streptococcus pneumoniae harboring erm(B) gene by broth microdilution method
# [37] = tested on: Haemophilus influenzae; experiment: Antimicrobial activity against Haemophilus influenzae A1950 assessed as log reduction in bacterial growth at 4 times MIC after 24 hrs by time-kill assay
# [38] = tested on: Haemophilus influenzae; experiment: Antimicrobial activity against Haemophilus influenzae A1950 assessed as log reduction in bacterial growth at 8 times MIC after 24 hrs by time-kill assay
# [39] = tested on: Haemophilus influenzae; experiment: Antimicrobial activity against Haemophilus influenzae 54A1100 assessed as log reduction in bacterial growth at 8 times MIC after 24 hrs by time-kill assay
# [40] = tested on: Staphylococcus epidermidis; experiment: Antimicrobial activity against Staphylococcus epidermidis A8934
# [41] = tested on: Streptococcus pneumoniae; experiment: Antimicrobial activity against Streptococcus pneumoniae 02J1258
# [42] = tested on: Staphylococcus aureus; experiment: Antimicrobial activity against Staphylococcus aureus A8727
# [43] = tested on: Enterococcus faecalis; experiment: Antimicrobial activity against Enterococcus faecalis A5962
# [44] = tested on: Enterococcus faecium; experiment: Antimicrobial activity against Enterococcus faecium A9621 by broth microdilution method
# [45] = tested on: Enterococcus faecium; experiment: Antimicrobial activity against Enterococcus faecium A5960
# [46] = tested on: Enterococcus faecalis; experiment: Antimicrobial activity against Enterococcus faecalis A6343
# [47] = tested on: Streptococcus pneumoniae; experiment: Antimicrobial activity against Streptococcus pneumoniae 02J1175
# [48] = tested on: Staphylococcus aureus; experiment: Antimicrobial activity against Staphylococcus aureus A7819 harboring G2576U mutation in 23S rRNA
# [49] = tested on: Staphylococcus aureus; experiment: Antimicrobial activity against methicillin resistant Staphylococcus aureus 67-0
# [50] = tested on: Staphylococcus capitis; experiment: Antimicrobial activity against Staphylococcus capitis A8935
# [51] = tested on: Streptococcus pneumoniae; experiment: Antimicrobial activity against Streptococcus pneumoniae 02J1258 assessed as log reduction in bacterial growth at 8 times MIC after 24 hrs by time-kill assay
# [52] = tested on: Streptococcus pyogenes; experiment: Antimicrobial activity against Streptococcus pyogenes
# [53] = tested on: Staphylococcus hominis; experiment: Antimicrobial activity against Staphylococcus hominis A7828
# [54] = tested on: Staphylococcus aureus; experiment: Antimicrobial activity against Staphylococcus aureus A7820
# [55] = tested on: Haemophilus influenzae; experiment: Antimicrobial activity against Haemophilus influenzae
# [56] = Streptococcus pneumoniae, read-out: MIC
smiles,measurement,setting,value
CC(=O)NC[C@H]1CN(c2ccc(-c3ccc(CNCCCF)cc3)c(F)c2)C(=O)O1,MIC,[1],0.5 µg/mL
same,MIC,[2],0.5 µg/mL
same,MIC,[3],≤ 0.25 µg/mL
same,MIC,[4],2 µg/mL
same,MIC,[5],32 µg/mL
same,MIC,[6],4 µg/mL
same,FC,[7],>3
same,MIC,[8],1 µg/mL
same,MIC,[9],2 µg/mL
same,MIC,[10],1 µg/mL
same,MIC,"[10]; Staphylococcus aureus, read-out: MIC",0.5 µg/mL
same,MIC,[11],2 µg/mL
same,MIC,[12],4 µg/mL
same,MIC,[13],0.5 µg/mL
same,MIC,"[13]; Enterococcus faecalis, read-out: MIC",≤ 0.25 µg/mL
same,FC,[14],>3
same,MIC,[15],2 µg/mL
same,MIC,[16],1 µg/mL
same,MIC,[17],0.5 µg/mL
same,MIC,[18],2 µg/mL
same,FC,[19],>3
same,MIC,[20],0.5 µg/mL
same,MIC,[21],1 µg/mL
same,MIC,[22],4 µg/mL
same,MIC,[23],2 µg/mL
same,MIC,"[23]; Moraxella catarrhalis, read-out: MIC",1 µg/mL
same,MIC,[24],8 µg/mL
same,MIC,[25],1 µg/mL
same,MIC,[26],2 µg/mL
same,MIC,[27],1 µg/mL
same,FC,[28],>3
same,MIC,[29],1 µg/mL
same,MIC,[30],4 µg/mL
same,MIC,[31],64 µg/mL
same,MIC,[32],≤ 0.25 µg/mL
same,MIC,[33],16 µg/mL
same,MIC,[34],4 µg/mL
same,MIC,[35],1 µg/mL
same,MIC,[36]; [56],≤ 0.25 µg/mL
same,FC,[37],>3
same,FC,[38],>3
same,FC,[39],>3
same,MIC,[40],4 µg/mL
same,MIC,[41],0.25 µg/mL
same,MIC,[42],4 µg/mL
same,MIC,[43],4 µg/mL
same,MIC,[44],4 µg/mL
same,MIC,[45],4 µg/mL
same,MIC,[46],2 µg/mL
same,MIC,[47],0.125 µg/mL
same,MIC,[48],16 µg/mL
same,MIC,[49],1 µg/mL
same,MIC,[50],1 µg/mL
same,FC,[51],>3
same,MIC,[52],0.25 µg/mL
same,MIC,"[52]; Streptococcus pyogenes, read-out: MIC",0.125 µg/mL
same,MIC,[53],4 µg/mL
same,MIC,[54],16 µg/mL
CC[C@H]1OC(=O)[C@H](C)[C@@H](O[C@H]2C[C@@](C)(OC)[C@@H](O)[C@H](C)O2)[C@H](C)[C@@H](O[C@@H]2O[C@H](C)C[C@H](N(C)C)[C@H]2O)[C@](C)(O)C[C@@H](C)CN(C)[C@H](C)[C@@H](O)[C@]1(C)O [AZITHROMYCIN],MIC,[1],4 µg/mL
same,MIC,[2],0.25 µg/mL
same,MIC,[4],> 128 µg/mL
same,MIC,[5],> 128 µg/mL
same,MIC,[6],4 µg/mL
same,MIC,[8],> 128 µg/mL
same,MIC,[9],> 128 µg/mL
same,MIC,[11],4 µg/mL
same,MIC,[12],2 µg/mL
same,MIC,[15],1 µg/mL
same,MIC,[16],8 µg/mL
same,MIC,[17],> 128 µg/mL
same,MIC,[18],8 µg/mL
same,MIC,[20],> 128 µg/mL
same,MIC,[22],> 128 µg/mL
same,MIC,[24],> 128 µg/mL
same,MIC,[25],0.5 µg/mL
same,MIC,[26],1 µg/mL
same,MIC,[27],> 128 µg/mL
same,MIC,[29],> 128 µg/mL
same,MIC,[30],8 µg/mL
same,MIC,[31],> 128 µg/mL
same,MIC,[33],1 µg/mL
same,MIC,[34],> 128 µg/mL
same,MIC,[35],4 µg/mL
same,MIC,[36]; [56],> 128 µg/mL
same,MIC,[40],> 128 µg/mL
same,MIC,[41],> 128 µg/mL
same,MIC,[42],16 µg/mL
same,MIC,[43],> 128 µg/mL
same,MIC,[44],16 µg/mL
same,MIC,[45],> 128 µg/mL
same,MIC,[46],> 128 µg/mL
same,MIC,[47],32 µg/mL
same,MIC,[48],2 µg/mL
same,MIC,[49],> 128 µg/mL
same,MIC,[50],64 µg/mL
same,MIC,[52],0.03 µg/mL and 0.06 µg/mL
same,MIC,[53],> 128 µg/mL
same,MIC,[54],> 128 µg/mL
CCC[C@@H]1C[C@@H](C(=O)N[C@@H]([C@H]2O[C@H](SC)[C@H](O)[C@@H](O)[C@H]2O)[C@H](C)Cl)N(C)C1 [CLINDAMYCIN],MIC,[36],>128 µg/mL
same,MIC,[36]; [56],> 64 µg/mL
C[C@H]1COc2c(N3CCN(C)CC3)c(F)cc3c(=O)c(C(=O)O)cn1c23.C[C@H]1COc2c(N3CCN(C)CC3)c(F)cc3c(=O)c(C(=O)O)cn1c23.O [LEVOFLOXACIN],MIC,[55],0.016 µg/mL
same,MIC,"[55]; Haemophilus influenzae, read-out: MIC",0.008 µg/mL
